From patent US9879243B2, “Culture medium for cell growth and transfection” (LIFE TECHNOLOGIES CORPORATION, priority 2001, dated 2018)

Legend:
293 cells [1] = experiment: β-galactosidase expression after transfection (pCMV-SPORT-β-gal, LIPOFECTAMINE 2000) of 293 cells in monolayer culture, 24-well plates; format: cell-based, human; conditions: Table 8, replacement compounds 25 μM in test media, 24 hrs post-transfection
Experimental: When cultured in suspension, cells were split to 3×10^5 viable cells per ml at each passage. On the week of transfection cells were seeded at 3×10^5 viable cells per ml. After ˜48 hrs of growth (day 2) cells were vortexed for 30 seconds and counted and appropriate volumes used for transfection as described in procedures below.
In addition, the base media comprises 2.4 g/L NaHCO3, 2.98 g/L Hepes, 4 mM L-glutamine and 3 ml/L PLURONIC F-68 (Invitrogen Corp., Carlsbad, Calif.).
The osmolarity is adjusted to from about 275-310 mOsm, preferably about 280 mOsm and the pH is adjusted to from about 7.0 to about 7.45 preferably about 7.4 respectively.
Three wells were set up for each treatment. A volume of media corresponding to 3×10^6 viable cells was centrifuged. The supernatant was removed and the cells re-suspended in 600 μl test media. Each well of a 24 well plate received 200 μl of the re-suspended cells.
To prepare the nucleic acid for the transfection experiments, 93 μl test media+3 μl DNA+24 μl LIPOFECTAMINE 2000 were combined in a microfuge tube and complexed for 30 minutes. A 40 μl aliquot of complex was added to each well. 250 μl test media was added to each well five hours after addition of complex. The final cell concentration was 1×10^6 viable cells per well; the final DNA concentration was 1 μg per 1×10^6 viable cells and the final LIPOFECTAMINE 2000 concentration was 8 μl per 1×10^6 viable cells.
24 hrs post-transfection, samples were collected for β-galactosidase quantitation. The contents of duplicate wells were pooled (i.e. ˜2×10^6 cells for the assay) for each sample and transferred to a microfuge tube. The cells were centrifuged, the supernatant was removed and the cells were re-suspended in 1 ml of D-PBS. The cells were pelleted a second time and re-suspended in 1 ml of D-PBS. The samples were then stored at −70° C. Prior to the assay for β-galactosidase, samples were freeze-thawed a total of five times.
293 cells were grown in monolayer culture in the presence of the various replacement compounds indicated and transfection experiments performed as described above. The results are shown in Table 8 and the values are β-galactosidase activity expressed as nanograms of β-galactosidase per 2×10^6 cells. A comparison was made between the transfection efficiency of DNA complexes formed in D-MEM medium and DNA complexes formed in test medium. […]
For cells transfected in 24-well plates, cells densities used were 1×10^6 viable cells per well.

293 cells [2] = experiment: Effect of replacement compounds on the growth of 293 cells in 293 SFM without transferrin, three passages; format: cell-based, human; conditions: third passage, control 5 μg/mL human holo-transferrin
Experimental: Semi-confluent adherent cultures of 293 Cells (ATCC, CRL 1573) are readily adapted to suspension culture. The cells are first detached with a solution of Trypsin-EDTA (0.05% Trypsin, 0.53 mM Na4EDTA), and then resuspended in conventional medium supplemented with 10% FBS to inhibit the trypsin. The resuspended cells are centrifuged at 200×g for five minutes.
The initial seeding density of the 293 cells after conversion to suspension culture is 1×10^6 cells/mL. The cells are shaken on a rotary shaker at 150 rpm in a 37° C. incubator equilibrated with 8% CO2-92% air. […] Because 293 cells have a tendency to aggregate, the cells can be vortexed vigorously for approximately 45 seconds to obtain a predominantly single cell suspension at the time of passaging and counting. After several passages in suspension culture, the maximum achievable density can be determined.
For replacement compound evaluation, 293 cells were established in 125 mL shaker flasks at an initial viable seeding density of 2×10^5 cells/mL in a final volume of 20 mL. All cultures were maintained at 37° C. in humidified air containing 8% CO2. To eliminate transferrin carry-over effects, cells were subcultured at 4 day intervals for a total of three passages. At each subculturing, cells were seeded at a density of 2×10^5 cells/mL. Positive control cultures contained 5 μg/mL human holo-transferrin while negative control cultures were established in the absence of either transferrin or replacement compound. Replacement compound stocks were prepared at 0.1M-0.2M in ddH2O and solubilized when necessary using 5N NaOH or HCl. Iron complexes were established using 0.2 M replacement compound and iron stocks mixed 1:1 (v/v) and incubated for 5-10 minutes at 22° C. All solutions containing replacement compounds were filter sterilized using a 0.22 μm Millex-GV filter prior to addition to transferrin and serum-free media.
Except where noted, replacement compounds were evaluated either alone or in combination with ferric chloride or ferrous sulfate at 25 μM, 50 μM and 100 μM. When used in combination, the replacement compounds were used in equimolar concentration with iron ions. Values in Table 4 represent the mean percentage of control growth for duplicate cultures determined at the third passage.
When added to the medium formulation uncomplexed, the replacement compound is listed alone, when added as a complex with a transition metal, the source of the transition metal is listed with the replacement compound.

Sp2/0 cells = experiment: Effect of replacement compounds on the growth of Sp2/0 cells in CD Hybridoma medium without transferrin, three passages; format: cell-based; conditions: third passage
Experimental: The ability of replacement compounds to support cellular growth in the absence of transferrin was evaluated using Sp2/0 cells maintained in CD Hybridoma medium (Invitrogen Corporation, Carlsbad, Calif.).
Stock cultures containing 5 μg/mL human holo-transferrin were prepared in CD Hybridoma medium. For replacement compound evaluation, Sp2/0 cells were established at an initial viable cell density of 0.5×10^5 cells/mL in stationary culture using 75 cm^2 tissue culture flasks in a final volume of 20 mL. All cultures were maintained at 37° C. in humidified air containing 8% CO2. To eliminate transferrin carry-over effects, cells were subcultured at the same seeding density at 4 day intervals for a total of three passages. Positive control cultures contained 5 μg/mL human holo-transferrin while negative control cultures were established in the absence of either transferrin or replacement compound. Replacement compound stocks were prepared at 0.1M-0.2M in ddH2O and solubilized when necessary using 5N NaOH or HCl. Iron complexes were established using 0.2M replacement compound and iron stocks mixed 1:1 (v/v) and incubated for 5-10 minutes at 22° C. All solutions containing replacement compounds were filter sterilized using a 0.22 μm Millex-GV filter prior to addition to transferrin and serum-free media.
Except where otherwise noted, replacement compounds were evaluated either alone or in combination with ferric chloride or ferrous sulfate at 25 μM, 50 μM and 100 μM. Values in the table represent the mean percentage of control growth for duplicate cultures determined at the third passage.
When added to the medium formulation un-complexed, the replacement compound is listed alone, when added as a complex with a transition metal, the source of the transition metal is listed with the replacement compound.

CHO cells = experiment: Effect of replacement compounds on the growth of CHO cells in CD CHO medium without transferrin, three passages; format: cell-based, Chinese hamster; conditions: third passage
Experimental: The ability of replacement compounds to support cellular growth in the absence of transferrin was evaluated using CHO cells maintained in CD CHO medium (Invitrogen Corporation, Carlsbad, Calif., the formulation of which is described in WO 98/08934). Stock cultures containing 5 μg/mL human holo-transferrin were prepared in CD CHO medium. For replacement compound evaluation, CHO cells were established in 125 mL shaker flasks at an initial viable seeding density of 1×10^5 cells/mL in a final volume of 20 mL. All cultures were maintained at 37° C. in humidified air containing 8% CO2. To eliminate transferrin carry-over effects, cells were subcultured at 4 day intervals for a total of three passages. Positive control cultures contained 5 μg/mL human holo-transferrin while negative control cultures were established in the absence of either transferrin or replacement compound. Replacement compound stocks were prepared at 0.1M-0.2M in ddH2O and solubilized when necessary using 5N NaOH or HCl. Iron complexes were established using 0.2M replacement compound and iron stocks mixed 1:1 (v/v) and incubated for 5-10 minutes at 22° C. All solutions containing replacement compounds were filter sterilized using a 0.22 μm Millex-GV filter prior to addition to transferrin and serum-free media.
Except where noted, replacement compounds were evaluated either alone or in combination with ferric chloride or ferrous sulfate at 25 μM, 50 μM and 100 μM. Values in the table represent the mean percentage of control growth for duplicate cultures determined at the third passage.
The ability of various replacement compounds to substitute for transferrin in the culture of CHO cells was determined. When added to the medium formulation un-complexed, the replacement compound is listed alone, when added as a complex with a transition metal, the source of the transition metal is listed with the metal binding compound.

[3] = 25 μM, iron equimolar where combined
[4] = 25 μM, control 5 μg/mL human holo-transferrin

Row | Compound | β-galactosidase activity; D-MEM used for complexing, Test media to re-suspend cells (293 cells [1]) | β-galactosidase activity; Test Media used for complexing and to re-suspend cells (293 cells [1]) | mean percentage of control growth (293 cells [2]; [3]) | mean percentage of control growth (293 cells [2]; 50 μM) | mean percentage of control growth (293 cells [2]; 100 μM) | mean percentage of control growth (Sp2/0 cells; [4]) | mean percentage of control growth (Sp2/0 cells; 50 μM) | mean percentage of control growth (Sp2/0 cells; 100 μM) | mean percentage of control growth (CHO cells; [4]) | mean percentage of control growth (CHO cells; 50 μM) | mean percentage of control growth (CHO cells; 100 μM)
1 | Cc1occc(=O)c1O [3-Hydroxy-2-Methyl-4-Pyrone (Maltol), 3-Hydroxy-2-Methyl-4-Pyrone] | 103 nanograms of β-galactosidase per 2×10^6 cells | 52 nanograms of β-galactosidase per 2×10^6 cells | 0 percentage of control growth | 28 percentage of control growth | 81 percentage of control growth | 0 percentage of control growth | 0 percentage of control growth | 0 percentage of control growth |  |  | 
2 | Human Transferrin (as control): human transferrin used as control replacement compound in test media | 326 nanograms of β-galactosidase per 2×10^6 cells | 3279 nanograms of β-galactosidase per 2×10^6 cells |  |  |  |  |  |  |  |  | 
3 | [Cl][Fe]([Cl])[Cl] [Ferric Chloride, reference compound] | 18 nanograms of β-galactosidase per 2×10^6 cells | 0 nanograms of β-galactosidase per 2×10^6 cells | 87 percentage of control growth | 91 percentage of control growth | 109 percentage of control growth | 55 percentage of control growth | 73 percentage of control growth | 74 percentage of control growth | 56 percentage of control growth | 85 percentage of control growth | 101 percentage of control growth
4 | Nitriloacetic Acid•Ferric Chloride | 45 nanograms of β-galactosidase per 2×10^6 cells | 33 nanograms of β-galactosidase per 2×10^6 cells | 100 percentage of control growth | 118 percentage of control growth | 74 percentage of control growth | 88 percentage of control growth | 87 percentage of control growth | 70 percentage of control growth | 127 percentage of control growth | 107 percentage of control growth | 107 percentage of control growth
5 | Diethylenetriamine Penta-Acetic Acid•Ferric Chloride | 131 nanograms of β-galactosidase per 2×10^6 cells | 574 nanograms of β-galactosidase per 2×10^6 cells | 79 percentage of control growth | 96 percentage of control growth | 102 percentage of control growth |  |  |  |  |  | 
6 | [Cl][Fe]([Cl])[Cl].c1ccc(Nc2ccccn2)nc1 [2,2-Dipyridylamine•Ferric Chloride] | 347 nanograms of β-galactosidase per 2×10^6 cells | 459 nanograms of β-galactosidase per 2×10^6 cells | 118 percentage of control growth | 96 percentage of control growth | 101 percentage of control growth |  |  |  | 40 percentage of control growth | 48 percentage of control growth | 65 percentage of control growth
7 | O=S(=O)([O-])[O-].[Fe+2].[O-][n+]1cccc(O)c1 [3-Hydroxypyridine-N-Oxide•Ferrous Sulfate] | 176 nanograms of β-galactosidase per 2×10^6 cells | 317 nanograms of β-galactosidase per 2×10^6 cells | 104 percentage of control growth | 58 percentage of control growth | 0 percentage of control growth |  |  |  |  |  | 
